# Where a SMILES comes first, the peptide text is derived from it. The star is where a group is joined. Cbz = O=C(OCc1ccccc1)*
# Experiments:
# HIF1α = assay: Pilot ORF-luciferase stabilization experiment in 293FT cells (Fluc/Rluc); format: cell-based, human; conditions: DMOG 1 μM, 24 hours
# Protocol: (§1) FIGS. 6A-6B depict the pharmacological stabilization of firefly luciferase fusion protein. 293FT cells were transiently transfected with plasmids encoding unfused Fluc (pIRIF) or the indicated ORF-firefly luciferase (Fluc) fusions and then treated for 24 hours with DMOG (1 μM), MG132 (10 μM), or vehicle (DMSO). HIF1α-dPA is a HIF1α variant lacking both prolyl hydroxylation sites (33). Shown for each plasmid are Fluc/Rluc values (FIG. 6A) and Fold change in Fluc/Rluc compared to DMSO treatment (FIG. 6B). Data are mean±SD, n=4.
# (§2) In pilot experiments 293FT embryonic kidney cells grown in multiwell plates were transfected with the ORF-luciferase library (one ORF per well) and treated with the proteasome inhibitor MG132, the hydroxylase inhibitor dimethyloxalylglycine (DMOG), or vehicle. Fluc/Rluc values measured 36 to 48 hours later were stable over a wide range of input plasmid concentrations (FIG. 5).
# proteasomal substrates = assay: as above; format: cell-based, human; conditions: MG132 10 μM, 24 hours
# Protocol: as §1, §2
# IKZF1 = assay: Exogenous IKZF protein level in 293FT cells (Fluc/Rluc ratio, HA immunoblot); format: cell-based, human; conditions: 12 hours; for effect on down-regulation of exogenous IKZF1 by lenalidomide: with lenalidomide 2 μM, MLN4924 1 μM or MG132 10 μM
# Protocol: To verify the change of Fluc/Rluc of ORFs obtained from the 384-well high-throughput screen, each clone was further tested in a 96 well format. […] On the day of transfection 96-well polypropylene plates (Greiner) were used to prepare the transfection mixture. First, a plasmid mixture containing 240 ng of ORF luciferase fusion clone and 480 ng of pcDNA3 was diluted into 120 μl of Opti-MEM reduced serum. Next 14.4 μL of Lipofectamine 2000 was diluted into 120 μl of Opti-MEM reduced serum. 5 minutes later, the plasmid solution was mixed with the diluted Lipofectamine 2000 using a multi-channel pipette. […] 24 hours after transfection, cells were treated with LEN (2 μM) or DMSO in quadruplicate. […] The ratio of FLuc/Rluc was calculated for each well. To determine the change of Fluc/Rluc for each ORF, the averaged Fluc/Rluc of LEN treated wells was divided by that of DMSO treated wells. A 2-tailed Student's t test was performed to determine the statistical significance. P value <0.05 was considered significant.
# (§3) Whole cell extracts were resolved by SDS-polyacrylamide gel electrophoresis, transferred onto a nitrocellulose membrane, and probed with the indicated primary antibodies. Bound antibodies were detected with horseradish peroxidase-conjugated secondary antibodies (Pierce) and enhanced chemiluminescence (ECL) western blotting detection regents (Pierce) or Immobilon western chemiluminescent horseradish peroxidase substrate (Millipore).
# endogenous IKZF1 = assay: Immunoblot of endogenous protein in leukemia and myeloma cells; format: cell-based, human; conditions: U937, MM1S and L363 cells; pretreated with MG132 or MLN4924
# Source text: as §3
# (§4) For cycloheximide assays, cells were pretreated with DMSO or LEN (2 μM) for 1 hour, and then 100 μg/ml cycloheximide (Sigma) was added into the DMEM growth medium.
# endogenous IKZF3 = assay: Immunoblot of endogenous protein in myeloma cells; format: cell-based, human; conditions: MM1S and L363 cells; pretreated with MG132 or MLN4924
# Source text: as §3, §4
# myeloma = conditions: alone and in combination with lenalidomide; cited from earlier work
# IKZF4 = biological target: T1, IKZF4 (Homo sapiens, UniProt Q9H2S9); assay: Exogenous IKZF protein level in 293FT cells (Fluc/Rluc ratio, HA immunoblot); format: cell-based; conditions: lenalidomide 2 μM, 12 hours
# T1 construct: expressed in transfected cells; host or cells: 293FT
# Protocol: (§5) To verify the change of Fluc/Rluc of ORFs obtained from the 384-well high-throughput screen, each clone was further tested in a 96 well format. The day before transfection, 293FT cells were seeded into solid opaque 96-well plates (BD biosciences) with 20,000 cells in 100 μl of DMEM culture media per well. On the day of transfection 96-well polypropylene plates (Greiner) were used to prepare the transfection mixture. First, a plasmid mixture containing 240 ng of ORF luciferase fusion clone and 480 ng of pcDNA3 was diluted into 120 μl of Opti-MEM reduced serum. Next 14.4 μL of Lipofectamine 2000 was diluted into 120 μl of Opti-MEM reduced serum. 5 minutes later, the plasmid solution was mixed with the diluted Lipofectamine 2000 using a multi-channel pipette. After 30 minutes, 28 μl of DNA/lipofectamine mixture was added to each well of the 96 well plates seeded with 293FT cells (8 wells for each ORF). […] The ratio of FLuc/Rluc was calculated for each well. […]
# as §3
# IKZF5 = biological target: T2, IKZF5 (Homo sapiens, UniProt Q9H5V7); assay: as above; format: cell-based; conditions: lenalidomide 2 μM, 12 hours
# T2 construct: expressed in transfected cells; host or cells: 293FT
# Protocol: as §5, §3
# IRF4 [1] = biological target: T3, IRF4 (Homo sapiens, UniProt Q15306); assay: Exogenous protein level in 293FT cells (Fluc/Rluc ratio, HA immunoblot); format: cell-based; conditions: lenalidomide 2 μM, 12 hours
# T3 construct: expressed in transfected cells; host or cells: 293FT
# Protocol: as §5, §3
# C11orf65 = biological target: T4, C11orf65 (Homo sapiens, UniProt Q8NCR3); assay: Exogenous protein level in 293FT cells (Fluc/Rluc ratio, HA tag); format: cell-based; conditions: lenalidomide
# T4 construct: expressed in transfected cells; host or cells: 293FT
# T4 sequence (Q8NCR3 1-313): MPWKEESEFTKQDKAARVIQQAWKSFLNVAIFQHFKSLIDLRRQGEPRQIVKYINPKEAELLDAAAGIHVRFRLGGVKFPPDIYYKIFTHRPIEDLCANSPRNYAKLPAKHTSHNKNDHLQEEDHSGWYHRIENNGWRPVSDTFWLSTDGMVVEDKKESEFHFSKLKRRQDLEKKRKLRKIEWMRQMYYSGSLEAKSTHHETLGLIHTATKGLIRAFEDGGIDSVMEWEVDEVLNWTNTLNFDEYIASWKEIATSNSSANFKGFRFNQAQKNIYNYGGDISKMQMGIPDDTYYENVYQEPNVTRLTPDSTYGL
# IRF4 [2] = assay: Immunoblot of endogenous protein in myeloma cells; format: cell-based, human; conditions: LEN 2 μM
# Source text: as §3
# IRF4 mRNA = assay: Real-time qPCR; format: cell-based, human; conditions: MM1S cells treated with lenalidomide
# Protocol: Total RNA was extracted using Qiagen RNeasy Mini Kit with on-column DNase digestion. Total RNA was reverse transcribed into first-strand cDNA using AffinityScript QPCR cDNA Synthesis Kit (Agilent) with random primers. Real-time PCR was performed in duplicate using RT2 SYBR Green/ROX qPCR Master Mix (Qiagen) and the Mx3000P QPCR system (Stratagene). Values were averaged to calculate the expression level and normalized against the level of RPS18. PCR primers are as follows: […]
# IKZF1 Q146H = IKZF1 Q146H (Homo sapiens, UniProt Q13422, Q146H); conditions: IKZF1 residue Q146 changed to histidine
# Source text: (§6) Human IKZF4 cDNA clone was PCR amplified from ETS clone HsCD00295530 (PlasmID, DF/HCC DNA Resource Core), and then cloned into pDONR223 via BP gateway recombination. Human CRBN, human IKZF1 splicing variant 2 (IKZF1-V2), human IKZF2 splicing variant 2 (IKZF2-V2), human IKZF5 and human IRF4 in pDONR223 entry vectors were obtained from the human ORFeome Collection (DF/HCC DNA Resource Core). IKZF1 splicing variant 1 (IKZF1-V1) cDNA and human IKZF2 splicing variant 1 (IKZF2-V1) cDNA were generated by overlapping PCR and cloned into pDONR223 via BP gateway recombination. IKZF4, IKZF1-V1 and IKZF2-V1 were cloned into pIRIGF via LR gateway recombination. IKZF1/2 chimeras (IKZF12 H1, IKZF12 H2, IKZF12 H3, IKZF12 H4, IKZF21 H5, IKZF21 H6, IKZF21 H7, IKZF2 H8, IKZF121 and IKZF212), IKZF1-V2-Q146H, IKZF1-V2-H176P/L177F, IKZF2-V1-H141Q, IKZF2-V1-P171H/F172L, IKZF1-V1-Q146H, IKZF3-Q147H mutants were generated via overlapping PCR and cloned into pIRIGF via LR gateway recombination. IKZF1-V2, IKZF2-V2, IKZF3, IKZF4, IKZF5 and IRF4 were cloned into plenti-UBC-gate-3xHA-pGK-PUR via LR gateway recombination.
# [3] = biological target: IKZF2 with the reciprocal change (H141Q) (Homo sapiens, UniProt Q9UKS7, H141Q); conditions: reciprocal change in IKZF2
# Source text: as §6
# IRF4 [4] = conditions: at least indirectly; cited from earlier work
# IKZF3 = biological target: T5, IKZF3 (Homo sapiens, UniProt Q9UKT9); assay: Exogenous IKZF protein level in 293FT cells (Fluc/Rluc ratio, HA immunoblot); format: cell-based; conditions: pomalidomide 0.2 μM, 12 hours
# T5 construct: expressed in transfected cells; host or cells: 293FT
# Protocol: To verify the change of Fluc/Rluc of ORFs obtained from the 384-well high-throughput screen, each clone was further tested in a 96 well format. […] On the day of transfection 96-well polypropylene plates (Greiner) were used to prepare the transfection mixture. First, a plasmid mixture containing 240 ng of ORF luciferase fusion clone and 480 ng of pcDNA3 was diluted into 120 μl of Opti-MEM reduced serum. Next 14.4 μL of Lipofectamine 2000 was diluted into 120 μl of Opti-MEM reduced serum. 5 minutes later, the plasmid solution was mixed with the diluted Lipofectamine 2000 using a multi-channel pipette. […] The ratio of FLuc/Rluc was calculated for each well. To determine the change of Fluc/Rluc for each ORF, the averaged Fluc/Rluc of LEN treated wells was divided by that of DMSO treated wells. A 2-tailed Student's t test was performed to determine the statistical significance. P value <0.05 was considered significant.
# as §3
# cereblon = cereblon (Homo sapiens, UniProt Q96SW2); conditions: cited from earlier work
# [5] = biological target: cereblon autoubiquitination activity (Homo sapiens, UniProt Q96SW2); conditions: cited from earlier work
# zebrafish = conditions: in vivo; cited from earlier work
# [6] = in vivo; cited from earlier work
smiles,measurement,setting,value
"COC(=O)CNC(=O)C(=O)OC [DMOG, dimethyloxalylglycine]",stabilization of HIF1α-Fluc fusion (Fluc/Rluc),HIF1α,stabilized
CC(C)C[C@@H](C=O)NC(=O)[C@H](CC(C)C)NC(=O)[C@H](CC(C)C)NC(=O)OCc1ccccc1 [MG132] (Cbz-Leu-Leu-Leu-aldehyde),stabilization of ORF-Fluc fusions (Fluc/Rluc),proteasomal substrates,stabilized many proteasomal substrates
same,effect on down-regulation of exogenous IKZF1 by lenalidomide,IKZF1,blocked
same,effect of pretreatment on lenalidomide down-regulation of endogenous IKZF1,endogenous IKZF1,unless the cells were pretreated
same,effect of pretreatment on lenalidomide down-regulation of endogenous IKZF3,endogenous IKZF3,unless the cells were pretreated
NS(=O)(=O)OC[C@@H]1C[C@@H](n2ccc3c(N[C@H]4CCc5ccccc54)ncnc32)C[C@@H]1O [MLN4924],effect on down-regulation of exogenous IKZF1 by lenalidomide,IKZF1,blocked
same,effect of pretreatment on lenalidomide down-regulation of endogenous IKZF1,endogenous IKZF1,unless the cells were pretreated
same,effect of pretreatment on lenalidomide down-regulation of endogenous IKZF3,endogenous IKZF3,unless the cells were pretreated
CC(C)C[C@H](NC(=O)[C@H](Cc1ccccc1)NC(=O)c1cnccn1)B(O)O [bortezomib],antimyeloma activity,myeloma,has antimyeloma activity
Nc1cccc2c1CN(C1CCC(=O)NC1=O)C2=O (stereo not drawn) [lenalidomide],level of exogenous IKZF4,IKZF4,did not affect
same,level of exogenous IKZF5,IKZF5,did not affect
same,level of exogenous IRF4,IRF4 [1],did not affect
same,level of C11orf65 fused to HA epitope tag instead of Fluc,C11orf65,unaffected
same,"IRF4 level (immunoblot, time course)","IRF4 [2]; KMS34 cells, following loss of IKZF1 and IKZF3",decrease
same,"IRF4 level (immunoblot, time course)","IRF4 [2]; L363 cells, high basal IRF4",unaffected
same,"IRF4 level (immunoblot, time course)","IRF4 [2]; MM1S cells, following loss of IKZF1 and IKZF3",decrease
same,IRF4 level,"IRF4 [2]; three resistant lines (KMS11, RPMI8226, OCImy5)",not down-regulated
same,IRF4 mRNA,IRF4 mRNA,Decreased
same,cereblon binding and lenalidomide-induced degradation,IKZF1 Q146H,abrogated
same,sensitivity of IKZF2 mutant to lenalidomide,[3],partially sensitive
same,"IRF4 level, previous studies",IRF4 [4],down-regulates
Nc1cccc2c1C(=O)N(C1CCC(=O)NC1=O)C2=O (stereo not drawn) [pomalidomide],level of IKZF3 fused to Fluc or HA,IKZF3,downregulation
same,level of IKZF1 fused to Fluc or HA,IKZF1; pomalidomide 0.2 μM,downregulation
O=C1CCC(N2C(=O)c3ccccc3C2=O)C(=O)N1 (stereo not drawn) [thalidomide],binding to cereblon,cereblon,bind
same,effect on cereblon autoubiquitination activity,[5],inhibit
same,effect of treatment of zebrafish,zebrafish,caused fin defects
same,teratogenicity,[6],"teratogenicity, manifest as profound limb defects"
